From ChEMBL document CHEMBL3137440, “DNDi T. cruzi fenarimol series dataset from which preclinical candidate EPL-BS0967 was identified (see also related datasets: CHEMBL3137386 and CHEMBL2448688)”
Converted amounts (≈) assume the structure as drawn. “And” between values parts separate entries of the source, which are not always exact repeats. Equal values may be shown once.

Key:
[1] = DNDI: Metabolism; assay type: ADME, Microsome; conditions: rat, microsomes; for hepatic extraction ratio: read-out: EH
Trypanosoma cruzi [2] = test: (§1) DNDI: Chagas in Vitro; assay type: functional, Tulahuen C4 (LacZ)
[3] = DNDI: Solubility in 0.01M HCl at pH 2 determined by nephelometry
in vitro [4] = conditions: human, microsomes
in vitro [5] = conditions: human, microsomes; remark: listed apart in the source
[6] = DNDI: Lipophilicity (gLogD) at pH 3; conditions: buffer
in vitro [7] = conditions: human, microsomes; remark: listed apart in the source
[8] = DNDI: Solubility in phosphate buffer at pH 6.5 determined by nephelometry
Trypanosoma cruzi [9] = test: as §1; assay type: functional, organism-based, Tulahuen C4 (LacZ)
[10] = DNDI: Lipophilicity (gLogD) at pH 7.4; conditions: buffer
Cytochrome P450 3A4 [11] = molecular target: T1, Cytochrome P450 3A4 (Homo sapiens, UniProt P08684); test: DNDI: CYP Inhibition; assay type: ADME
[12] = (§2) DNDI: Cytotoxicity against L-6 rat myoblasts from skeletal musclE; conditions: L6 rat skeletal muscle myoblasts, IC50
Cytochrome P450 3A4 [13] = molecular target: T1, Cytochrome P450 3A4
[14] = human, microsomes
[15] = human, microsomes; remark: listed apart in the source
L6 = test: as §2
[16] = human, microsomes; remark: listed apart in the source
[17] = tested on: Trypanosoma brucei rhodesiense; test: DNDI: HAT in Vitro; assay type: functional, organism-based; conditions: ATCC 30027
[18] = Trypanosoma cruzi, Tulahuen C4 (LacZ)

T1 sequence (P08684 whole entry): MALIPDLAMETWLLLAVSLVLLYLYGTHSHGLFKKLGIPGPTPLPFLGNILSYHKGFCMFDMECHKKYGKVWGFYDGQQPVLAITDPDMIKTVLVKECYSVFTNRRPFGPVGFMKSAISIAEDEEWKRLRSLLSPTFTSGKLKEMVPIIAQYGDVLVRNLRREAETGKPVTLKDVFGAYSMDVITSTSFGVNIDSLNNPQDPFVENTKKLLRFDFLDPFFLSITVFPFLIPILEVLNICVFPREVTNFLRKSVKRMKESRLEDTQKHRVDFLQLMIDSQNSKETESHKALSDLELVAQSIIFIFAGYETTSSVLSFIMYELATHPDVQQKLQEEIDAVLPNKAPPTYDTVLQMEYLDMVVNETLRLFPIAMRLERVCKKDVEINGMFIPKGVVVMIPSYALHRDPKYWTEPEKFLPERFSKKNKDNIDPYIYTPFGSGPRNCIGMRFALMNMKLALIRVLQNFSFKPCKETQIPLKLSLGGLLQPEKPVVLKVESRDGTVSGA

Compound | half-life [1] [min] | microsomal CLint [1] [µL/min/mg] | hepatic extraction ratio [1] | IC90 (Trypanosoma cruzi [2]; [18]) [nM] | half-life (in vitro [4]) [min] | microsomal CLint (in vitro [5]) [µL/min/mg] | chromatographic logD ([6]; pH 3) | hepatic extraction ratio (in vitro [7]) | IC50 (Trypanosoma cruzi [9]; [18]) [nM] | chromatographic logD ([10]; pH 7.4) | IC50 (Cytochrome P450 3A4 [11]) [nM] | solubility kinetic [3] [µg/mL] | solubility kinetic [8] [µg/mL] | IC50 [12] [nM] | IC90 (Trypanosoma cruzi [2]) | half-life (in vitro [4]; t (1 / 2)) [min] | microsomal CLint (in vitro [5]; CLint) [µL/min/mg] | chromatographic logD ([6]; pH 3, logD) | IC50 (Trypanosoma cruzi [9]) | chromatographic logD ([10]; pH 7.4, logD) | further results
CC(O)C(C)N1CCC(N(c2ccc(C(F)(F)F)cc2)c2cccnc2)CC1 (stereo not given) | – | – | – | – | – | – | – | – | – | – | – | > 100 | 25 (≈ 63.5 µM) | 64800 | 960 nM and > 100 nM | 72.9 | 23.8 | 1.3 | 424 nM and 75 nM | 2.9 | IC50 (Cytochrome P450 3A4 [13]): > 20000 nM; EH [14]: 0.57; hepatic extraction ratio (in vitro [7]; EH): 0.64; t (1 / 2) [15]: 55.4 min; IC50 (L6): 59600 nM; CLint [16]: 31.3 µL/min/mg
FC(F)(F)c1ccc(N(c2cncnc2)C2CCN(c3ccc(C(F)(F)F)nc3)CC2)cc1 | – | – | – | – | – | – | – | – | 10 | – | – | – | – | – | 21 nM and > 100 nM | – | – | – | 15.9 nM | – | IC50 [17]: > 10000 nM
CC(C)(F)CN1CCC(N(c2ccc(C(F)(F)F)cc2)c2cccnc2)CC1 | – | – | – | 25 | – | – | – | – | 15 | – | – | > 100 | 3.1 (≈ 7.84 µM) | 64900 | – | 12.6 | 138 | 1.8 | – | 5.1 | IC50 [17]: > 10000 nM
FC(F)(F)c1ccc(N(c2cccnc2)C2CCN(C(c3ccccc3)C(F)(F)F)CC2)cc1 (stereo not given) | – | – | – | 8140 | – | – | – | – | 5130 | – | – | > 100 | 1.6 (≈ 3.34 µM) | > 100000 | 8140 nM | 62.6 | 27.7 | > 5.3 | 5130 nM | > 5.3 | IC50 (Cytochrome P450 3A4 [13]): > 20000 nM; hepatic extraction ratio (in vitro [7]; EH): 0.61; IC50 [17]: > 10000 nM

More lines, main results first:

half-life [1] [min] | microsomal CLint [1] [µL/min/mg] | hepatic extraction ratio [1] | IC90 (Trypanosoma cruzi [2]; [18]) [nM] | half-life (in vitro [4]) [min] | microsomal CLint (in vitro [5]) [µL/min/mg] | chromatographic logD ([6]; pH 3) | hepatic extraction ratio (in vitro [7]) | IC50 (Trypanosoma cruzi [9]; [18]) [nM] | chromatographic logD ([10]; pH 7.4) | IC50 (Cytochrome P450 3A4 [11]) [nM] | Compound | solubility kinetic [3] [µg/mL] | solubility kinetic [8] [µg/mL] | IC50 [12] [nM] | IC90 (Trypanosoma cruzi [2]) | half-life (in vitro [4]; t (1 / 2)) [min] | microsomal CLint (in vitro [5]; CLint) [µL/min/mg] | chromatographic logD ([6]; pH 3, logD) | IC50 (Trypanosoma cruzi [9]) | chromatographic logD ([10]; pH 7.4, logD) | further results
27.7 | 62.6 | 0.67 | 280 | 35.5 | 48.8 | 1.6 | 0.73 | 94 | 3.1 | 2600 | CS(=O)(=O)N1CCC(N(c2ccc(Cl)cc2)c2cccnc2)CC1 | > 100 | 12.5 (≈ 34.2 µM) | 62500 | – | – | – | – | – | – | –
10.1 | 171 | 0.85 | 13.4 | 24 | 72.3 | 1.6 | 0.8 | 5.82 | 3.4 | 1500 | O=C(C1CC1)N1CCC(N(c2ccc(Cl)cc2)c2cccnc2)CC1 | > 100 | 12.5 (≈ 35.1 µM) | 78200 | – | – | – | – | – | – | –
7.5 | 231 | 0.88 | 61.7 | 12.5 | 139 | 2.1 | 0.89 | 16 | 3.8 | 1900 | O=C(c1ccccc1)N1CCC(N(c2ccc(Cl)cc2)c2cccnc2)CC1 | > 100 | 6.3 (≈ 16.1 µM) | 52500 | – | – | – | – | – | – | –
